Source: patent US20260028321A1, “1,3,4-OXADIAZOLE DERIVATIVE COMPOUNDS AS HISTONE DEACETYLASE 6 INHIBITOR, AND USES THEREOF” (CHONG KUN DANG PHARMACEUTICAL CORP., priority 2022, published 2026)

Legend:
HDAC1 = HDAC1 (Homo sapiens (Human), UniProt Q13547); assay: HDAC1 enzyme activity inhibition assay (HDAC1 Fluorimetric Drug Discovery Assay Kit); format: biochemical; conditions: test substance 100, 1000, 10000 nM; 37° C. 60 minutes, developer 30 minutes; fluorescence Ex 390, Em 460
Experimental: (§1) The HDAC enzyme inhibition ability of the test substance was measured using the HDAC1 Fluorimetric Drug Discovery Assay Kit (Enzo life sciences: BML-AK511) and the HDAC6 human recombinant (Calbiochem: 382180). In the HDAC1 assay, the test substance was treated at concentrations of 100, 1000, and 10000 nM, and in the HDAC6 assay, the test substance was treated at concentrations of 0.1, 1, 10, 100, and 1000 nM. After sample treatment, the samples were reacted at 37° C. for 60 minutes, followed by reaction at 37° C. for 30 minutes by treatment with a developer, and fluorescence intensities (Ex 390, Em 460) thereof were measured using FlexStatin3 (Molecular device).

HDAC6 human recombinant = HDAC6 human recombinant (Homo sapiens (Human), UniProt Q9UBN7); assay: HDAC6 enzyme activity inhibition assay (fluorimetric); format: biochemical; conditions: test substance 0.1-1000 nM; 37° C. 60 minutes, developer 30 minutes; fluorescence Ex 390, Em 460
HDAC6 human recombinant, sequence (Q9UBN7 whole entry): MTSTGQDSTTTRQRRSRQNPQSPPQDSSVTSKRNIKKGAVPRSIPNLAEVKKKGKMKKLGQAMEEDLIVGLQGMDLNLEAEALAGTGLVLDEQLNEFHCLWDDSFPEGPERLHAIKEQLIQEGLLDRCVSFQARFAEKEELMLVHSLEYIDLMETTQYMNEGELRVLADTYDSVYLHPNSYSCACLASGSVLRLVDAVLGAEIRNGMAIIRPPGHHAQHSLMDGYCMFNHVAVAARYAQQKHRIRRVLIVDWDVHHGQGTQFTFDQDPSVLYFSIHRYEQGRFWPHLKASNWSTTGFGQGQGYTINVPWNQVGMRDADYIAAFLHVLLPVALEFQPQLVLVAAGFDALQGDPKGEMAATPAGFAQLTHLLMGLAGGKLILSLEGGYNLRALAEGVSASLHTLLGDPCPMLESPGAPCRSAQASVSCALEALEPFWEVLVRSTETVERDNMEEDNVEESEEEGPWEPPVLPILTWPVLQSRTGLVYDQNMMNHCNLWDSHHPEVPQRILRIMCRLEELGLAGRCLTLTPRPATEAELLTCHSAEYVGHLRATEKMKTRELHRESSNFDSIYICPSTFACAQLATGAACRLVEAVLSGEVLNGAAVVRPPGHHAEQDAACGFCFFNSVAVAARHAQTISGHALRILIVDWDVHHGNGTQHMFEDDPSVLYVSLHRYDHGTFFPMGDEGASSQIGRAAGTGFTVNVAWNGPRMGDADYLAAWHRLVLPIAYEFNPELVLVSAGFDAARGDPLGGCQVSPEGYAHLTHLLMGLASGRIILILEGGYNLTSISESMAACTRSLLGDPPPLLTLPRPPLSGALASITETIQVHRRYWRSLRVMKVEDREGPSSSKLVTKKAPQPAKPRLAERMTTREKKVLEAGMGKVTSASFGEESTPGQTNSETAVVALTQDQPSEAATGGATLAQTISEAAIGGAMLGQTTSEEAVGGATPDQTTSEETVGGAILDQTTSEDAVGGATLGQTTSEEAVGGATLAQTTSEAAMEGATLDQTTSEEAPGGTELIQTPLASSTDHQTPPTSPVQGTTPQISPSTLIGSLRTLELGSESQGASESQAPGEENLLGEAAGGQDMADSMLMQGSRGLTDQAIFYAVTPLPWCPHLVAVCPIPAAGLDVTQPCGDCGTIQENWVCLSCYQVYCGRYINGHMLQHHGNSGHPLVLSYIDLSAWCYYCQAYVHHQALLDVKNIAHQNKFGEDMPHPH
Experimental: as §1

HDAC1, sequence (Q13547 whole entry): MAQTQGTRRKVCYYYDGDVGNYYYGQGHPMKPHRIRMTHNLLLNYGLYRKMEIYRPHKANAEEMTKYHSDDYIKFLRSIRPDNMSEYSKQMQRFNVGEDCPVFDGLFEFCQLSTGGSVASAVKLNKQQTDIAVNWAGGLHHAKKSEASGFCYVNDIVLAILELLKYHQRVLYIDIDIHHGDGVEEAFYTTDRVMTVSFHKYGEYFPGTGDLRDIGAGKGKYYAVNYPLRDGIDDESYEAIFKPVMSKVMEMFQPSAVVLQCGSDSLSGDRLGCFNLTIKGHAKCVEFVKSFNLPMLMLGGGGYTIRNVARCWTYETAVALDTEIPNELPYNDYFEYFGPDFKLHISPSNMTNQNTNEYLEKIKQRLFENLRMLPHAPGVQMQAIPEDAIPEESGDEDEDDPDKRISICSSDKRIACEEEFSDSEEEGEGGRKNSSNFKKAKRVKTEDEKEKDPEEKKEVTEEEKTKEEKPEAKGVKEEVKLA

Row | Structure (SMILES) | IC50 (HDAC1) | IC50 (HDAC6 human recombinant)
1 | CN1CC2(C1)CN(c1c(N(Cc3ccc(-c4nnc(C(F)F)o4)cc3)c3ccccc3)c(=O)c1=O)C2 [Compound 11, 3-((4-(5-(difluoromethyl)-1,3,4-oxadiazol-2-yl)benzyl)(phenyl)amino)-4-(6-methyl-2,6-diazaspyro[3.3]heptan-2-yl)cyclobut-3-ene-1,2-dione] | > 10000 nM | 60 nM
2 | CN1CCN(c2c(N(Cc3ccc(-c4nnc(C(F)F)o4)cc3F)c3cccc(Br)c3)c(=O)c2=O)CC1 [Compound 12, 3-((3-bromophenyl)(4-(5-(difluoromethyl)-1,3,4-oxadiazol-2-yl)-2-fluorobenzyl)amino)-4-(4-methylpiperazin-1-yl)cyclobut-3-ene-1,2-dione] | > 10000 nM | 30 nM
3 | O=c1c(N(Cc2ccc(-c3nnc(C(F)F)o3)cc2F)c2ccccc2)c(N2C[C@@H]3C[C@H]2CN3C2COC2)c1=O [Compound 13, 3-((4-(5-(difluoromethyl)-1,3,4-oxadiazol-2-yl)-2-fluorobenzyl)(phenyl)amino)-4-((1S,4S)-5-(oxetan-3-yl)-2,5-diazabicyclo[2.2.1]heptan-2-yl)cyclobut-3-ene-1,2-dione] | > 10000 nM | 24 nM
4 | CN1C[C@@H]2C[C@H]1CN2c1c(N(Cc2ccc(-c3nnc(C(F)F)o3)cc2F)c2ccccc2)c(=O)c1=O [Compound 14, 3-((4-(5-(difluoromethyl)-1,3,4-oxadiazol-2-yl)-2-fluorobenzyl)(phenyl)amino)-4-((1S,4S)-5-methyl-2,5-diazabicyclo[2.2.1]heptan-2-yl)cyclobut-3-ene-1,2-dione] | > 10000 nM | –
5 | CN1C[C@@H]2C[C@H]1CN2c1c(N(Cc2ccc(-c3nnc(C(F)F)o3)cn2)c2ccccc2)c(=O)c1=O [Compound 15, 3-(((5-(5-(difluoromethyl)-1,3,4-oxadiazol-2-yl)pyridin-2-yl)methyl)(phenyl)amino)-4-((1S,4S)-5-methyl-2,5-diazabicyclo[2.2.1]heptan-2-yl)cyclobut-3-ene-1,2-dione] | > 10000 nM | 22 nM
6 | CC(C)N1C[C@@H]2C[C@H]1CN2c1c(N(Cc2ccc(-c3nnc(C(F)F)o3)cn2)c2ccccc2)c(=O)c1=O [Compound 16, 3-(((5-(5-(difluoromethyl)-1,3,4-oxadiazol-2-yl)pyridin-2-yl)methyl)(phenyl)amino)-4-((1S,4S)-5-isopropyl-2,5-diazabicyclo[2.2.1]heptan-2-yl)cyclobut-3-ene-1,2-dione] | > 10000 nM | 28 nM
7 | O=c1c(N(Cc2ccc(-c3nnc(C(F)F)o3)cn2)c2ccccc2)c(N2C[C@@H]3C[C@H]2CN3C2COC2)c1=O [Compound 17, 3-(((5-(5-(difluoromethyl)-1,3,4-oxadiazol-2-yl)pyridin-2-yl)methyl)(phenyl)amino)-4-((1S,4S)-5-(oxetan-3-yl)-2,5-diazabicyclo[2.2.1]heptan-2-yl)cyclobut-3-ene-1,2-dione] | > 10000 nM | 43 nM
8 | CN1CCN(c2c(N(Cc3ccc(-c4nnc(C(F)F)o4)cn3)c3cccc(-c4cccnc4)c3)c(=O)c2=O)CC1 [Compound 18, 3-(((5-(5-(difluoromethyl)-1,3,4-oxadiazol-2-yl)pyridin-2-yl)methyl)(3-(pyridin-3-yl)phenyl)amino)-4-(4-methylpiperazin-1-yl)cyclobut-3-ene-1,2-dione] | > 10000 nM | 51 nM
9 | CN1CCN(c2c(N(Cc3ccc(-c4nnc(C(F)F)o4)cn3)c3cccc(-c4ccncc4)c3)c(=O)c2=O)CC1 [Compound 19, 3-(((5-(5-(difluoromethyl)-1,3,4-oxadiazol-2-yl)pyridin-2-yl)methyl)(3-(pyridin-4-y 1)phenyl)amino)-4-(4-methylpiperazin-1-yl)cyclobut-3-ene-1,2-dione] | > 10000 nM | 102 nM
10 | CN1C[C@@H]2C[C@H]1CN2c1c(N(Cc2ncc(-c3nnc(C(F)F)o3)cc2F)c2ccccc2)c(=O)c1=O [Compound 20, 3-(((5-(5-(difluoromethyl)-1,3,4-oxadiazol-2-yl)-3-fluoropyridin-2-yl)methyl)(phenyl)amino)-4-((1S,4S)-5-methyl-2,5-diazabicyclo[2.2.1]heptan-2-yl)cyclobut-3-ene-1,2-dione] | > 10000 nM | –
11 | O=c1c(N(Cc2ncc(-c3nnc(C(F)F)o3)cc2F)c2ccccc2)c(N2C[C@@H]3C[C@H]2CN3C2COC2)c1=O [Compound 21, 3-(((5-(5-(difluoromethyl)-1,3,4-oxadiazol-2-yl)-3-fluoropyridin-2-yl)methyl)(phenyl)amino)-4-((1S,4S)-5-(oxetan-3-yl)-2,5-diazabicyclo[2.2.1]heptan-2-yl)cyclobut-3-ene-1,2-dione] | > 10000 nM | –
12 | CN1CCN(c2c(N(Cc3ccc(-c4nnc(C(F)F)o4)cc3F)c3ccc(F)c(F)c3)c(=O)c2=O)CC1 [Compound 22, 3-((4-(5-(difluoromethyl)-1,3,4-oxadiazol-2-yl)-2-fluorobenzyl)(3,4-difluorophenyl)amino)-4-(4-methylpiperazin-1-yl)cyclobut-3-ene-1,2-dione] | > 10000 nM | 64 nM
13 | O=c1c(N2CCN(C3COC3)CC2)c(N(Cc2ccc(-c3nnc(C(F)F)o3)cc2F)c2ccc(F)c(F)c2)c1=O [Compound 23, 3-((4-(5-(difluoromethyl)-1,3,4-oxadiazol-2-yl)-2-fluorobenzyl)(3,4-difluorophenyl)amino)-4-(4-(oxetan-3-yl)piperazin-1-yl)cyclobut-3-ene-1,2-dione] | > 10000 nM | 50 nM
14 | O=c1c(N2CCOCC2)c(N(Cc2ccc(-c3nnc(C(F)(F)F)o3)cc2)c2ccccc2)c1=O [Compound 24, 3-morpholino-4-[N-[[4-[5-(trifluoromethyl)-1,3,4-oxadiazol-2-yl]phenyl]methyl]anilino]cyclobut-3-ene-1,2-dione] | > 10000 nM | 161 nM

Results, then the compound that gave them:

Row | IC50 (HDAC1) | IC50 (HDAC6 human recombinant) | Structure (SMILES)
15 | > 10000 nM | 22 nM | CN1CCN(c2c(N(Cc3ccc(-c4nnc(C(F)F)o4)cc3F)c3ccccc3)c(=O)c2=O)CC1 [Compound 1, 3-((4-(5-(difluoromethyl)-1,3,4-oxadiazol-2-yl)-2-fluorobenzyl)(phenyl)amino)-4-(4-methylpiperazin-1-yl)cyclobut-3-ene-1,2-dione]
16 | > 10000 nM | – | O=c1c(N2CCOCC2)c(N(Cc2ccc(-c3nnc(C(F)F)o3)cc2F)c2ccccc2)c1=O [Compound 2, 3-((4-(5-(difluoromethyl)-1,3,4-oxadiazol-2-yl)-2-fluorobenzyl)(phenyl)amino)-4-morpholinocyclobut-3-ene-1,2-dione]
17 | > 10000 nM | 27 nM | O=c1c(N2CCS(=O)(=O)CC2)c(N(Cc2ccc(-c3nnc(C(F)F)o3)cc2F)c2ccccc2)c1=O [Compound 3, 3-((4-(5-(difluoromethyl)-1,3,4-oxadiazol-2-yl)-2-fluorobenzyl)(phenyl)amino)-4-(1,1-dioxidothiomorpholino)cyclobut-3-ene-1,2-dione]
18 | > 10000 nM | 31 nM | CN1CCN(c2c(N(Cc3ccc(-c4nnc(C(F)F)o4)cc3)c3ccccc3)c(=O)c2=O)CC1 [Compound 4, 3-((4-(5-(difluoromethyl)-1,3,4-oxadiazol-2-yl)benzyl)(phenyl)amino)-4-(4-methylpiperazin-1-yl)cyclobut-3-ene-1,2-dione]
19 | > 10000 nM | 29 nM | O=c1c(N2CCS(=O)(=O)CC2)c(N(Cc2ccc(-c3nnc(C(F)F)o3)cc2)c2ccccc2)c1=O [Compound 5, 3-((4-(5-(difluoromethyl)-1,3,4-oxadiazol-2-yl)benzyl)(phenyl)amino)-4-(1,1-dioxidothiomorpholino)cyclobut-3-ene-1,2-dione]
20 | > 10000 nM | – | O=c1c(N2CCS(=O)(=O)CC2)c(N(Cc2ncc(-c3nnc(C(F)F)o3)cc2F)c2ccccc2)c1=O [Compound 6, 3-(((5-(5-(difluoromethyl)-1,3,4-oxadiazol-2-yl)-3-fluoropyridin-2-yl)methyl)(phenyl)amino)-4-(1,1-dioxidothiomorpholino)cyclobut-3-ene-1,2-dione]
21 | > 10000 nM | 36 nM | CN1CCN(c2c(N(Cc3ccc(-c4nnc(C(F)F)o4)cc3F)c3cc(F)cc(Br)c3)c(=O)c2=O)CC1 [Compound 7, 3-((3-bromo-5-fluorophenyl)(4-(5-(difluoromethyl)-1,3,4-oxadiazol-2-yl)-2-fluorobenzyl)amino)-4-(4-methylpiperazin-1-yl)cyclobut-3-ene-1,2-dione]
22 | > 10000 nM | 35 nM | CN1CCN(c2c(N(Cc3ccc(-c4nnc(C(F)F)o4)cc3F)c3cc(F)cc(-c4cccnc4)c3)c(=O)c2=O)CC1 [Compound 8, 3-((4-(5-(difluoromethyl)-1,3,4-oxadiazol-2-yl)-2-fluorobenzyl)(3-fluoro-5-(pyridin-3-yl)phenyl)amino)-4-(4-methylpiperazin-1-yl)cyclobut-3-ene-1,2-dione]
23 | > 10000 nM | 56 nM | O=c1c(N2CC3(C2)CN(C2COC2)C3)c(N(Cc2ccc(-c3nnc(C(F)F)o3)cc2F)c2ccccc2)c1=O [Compound 10, 3-((4-(5-(difluoromethyl)-1,3,4-oxadiazol-2-yl)-2-fluorobenzyl)(phenyl)amino)-4-(6-(oxetan-3-yl)-2,6-diazaspiro[3.3]heptan-2-yl)cyclobut-3-ene-1,2-dione]
